What was measured:
[1] = target: T1, human bradykinin 1 receptor (B1R) (Homo sapiens, UniProt P46663); assay: Functional investigation on the human bradykinin 1 receptor (B1R), Ca2+ FLIPR assay in CHO K1 hB1R cells; type: cell-based; details: B1R antagonism human; test substance 10 μM; Ca2+ FLIPR, CHO K1 hB1R cells
T1 construct: expressed in transfected cells; host or cells: CHO K1 cells
T1 sequence (P46663 1-353): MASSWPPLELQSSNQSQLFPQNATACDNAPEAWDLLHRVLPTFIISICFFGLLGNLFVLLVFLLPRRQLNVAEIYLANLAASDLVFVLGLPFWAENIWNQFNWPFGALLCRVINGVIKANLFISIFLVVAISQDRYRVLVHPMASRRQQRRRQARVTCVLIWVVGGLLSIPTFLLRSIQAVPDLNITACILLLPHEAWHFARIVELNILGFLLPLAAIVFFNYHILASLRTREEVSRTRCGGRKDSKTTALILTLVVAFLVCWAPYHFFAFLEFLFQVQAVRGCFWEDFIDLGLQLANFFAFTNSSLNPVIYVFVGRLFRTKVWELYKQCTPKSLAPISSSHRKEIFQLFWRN
Method in brief: (§1)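 Stably transfected CHO K1 cells loaded with Fluo-4; FLIPR Ca2+ fluorescence peak (ex 488/em 540 nm). Compound added first (agonism vs Lys-Des-Arg9-bradykinin ≥50 nM human, Des-Arg9-bradykinin 10 μM rat), then after 10-20 min agonist at EC80; antagonism as % inhibition, IC50 from concentration series, n=2-3, N≥2.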

[2] = target: T2, bradykinin 1 receptor (B1R) of the rat (Rattus norvegicus, UniProt P97583); assay: Functional investigation on the rat bradykinin 1 receptor (B1R), Ca2+ FLIPR assay in CHO K1 rB1R cells; type: cell-based; details: B1R antagonism rat; test substance 10 μM; Ca2+ FLIPR, CHO K1 rB1R cells
T2 construct: expressed in transfected cells; host or cells: CHO K1 cells
T2 sequence (P97583 1-337): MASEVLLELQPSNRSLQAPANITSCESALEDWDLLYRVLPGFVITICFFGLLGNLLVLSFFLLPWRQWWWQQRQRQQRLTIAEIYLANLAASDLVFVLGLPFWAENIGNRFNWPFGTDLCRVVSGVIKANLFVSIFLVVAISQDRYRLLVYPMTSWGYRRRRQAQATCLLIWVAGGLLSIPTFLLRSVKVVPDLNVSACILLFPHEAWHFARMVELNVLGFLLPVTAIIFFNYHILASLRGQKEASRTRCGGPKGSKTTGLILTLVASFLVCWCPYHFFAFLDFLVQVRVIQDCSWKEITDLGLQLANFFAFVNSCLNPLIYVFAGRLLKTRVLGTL
Method in brief: as §1

| SMILES | B1R Ant. h [10 μM] % Inhibition [1] [%] | B1R Ant. r [10 μM] % Inhibition [2] [%] |
| --- | --- | --- |
| CN(C)C(c1ccc(Cl)cc1)C1CCC(CNC(=O)COC2CCN(S(=O)(=O)c3cccc(C(F)(F)F)c3)C2)CC1 (stereo not shown) [Example 331] | 30 | 44 |
| CN(C)C(c1ccc(F)cc1)C1CCC(CNC(=O)COCCN(Cc2ccccc2)S(=O)(=O)c2ccccc2)CC1 (stereo not shown) [Example 342] | 28 | −20 |
| CCN(CCOCC(=O)NCC1CCC(C(c2ccc(F)cc2)N(C)C)CC1)S(=O)(=O)c1c(C)cc(OC)c(C)c1C (stereo not shown) [Example 327] | 101 | 68 |
| COc1ccc(S(=O)(=O)N2CCCC2COCC(=O)NCC2CCC(C(c3ccc(Cl)cc3)N(C)C)CC2)cc1 (stereo not shown) [Example 351] | 52 | 34 |
| CN(C)C(c1ccc(F)cc1)C1CCC(NC(=O)COCCN(C)S(=O)(=O)c2ccc(Cl)cc2Cl)CC1 (stereo not shown) [Example 356] | 92 | 43 |
| COc1ccc(S(=O)(=O)N2Cc3ccccc3CC2COCC(=O)NCC2CCC(C(c3ccc(F)cc3)N(C)C)CC2)cc1 (stereo not shown) [Example 288] | 62 | 20 |
| COc1ccc(S(=O)(=O)N2CCCC2COCC(=O)NCCC2CCC(C(c3ccc(Cl)cc3)N(C)C)CC2)cc1 (stereo not shown) [Example 346] | 52 | 45 |
| CN(C)C(c1ccc(Cl)cc1)C1CCC(CCNC(=O)COCCN(C)S(=O)(=O)c2ccc(Cl)cc2Cl)CC1 (stereo not shown) [Example 291] | 105 | 36 |
| CN(C)C(c1ccc(F)cc1)C1CCC(NC(=O)COCCN(C)S(=O)(=O)c2ccc(OC(F)(F)F)cc2)CC1 (stereo not shown) [Example 361] | 3 | 31 |
| COc1ccc(S(=O)(=O)N2CCCCC2COCC(=O)NCC2CCC(C(c3ccc(Cl)cc3)N(C)C)CC2)c(OC)c1 (stereo not shown) [Example 280] | 51 | 36 |
| COc1ccc(S(=O)(=O)N2CCCCC2COCC(=O)NC2CCC(C(c3cccc(F)c3)N(C)C)CC2)cc1OC (stereo not shown) [Example 352] | −18 | −13 |
| COc1ccc(S(=O)(=O)N2CCCCC2COCC(=O)NC2CCC(C(c3cccc(F)c3)N(C)C)CC2)c(OC)c1 (stereo not shown) [Example 322] | −14 | 6 |
| COc1ccc(S(=O)(=O)N2CCCCC2CCOCC(=O)NCC2CCC(C(c3ccc(F)cc3)N(C)C)CC2)cc1 (stereo not shown) [Example 350] | 57 | 35 |
| COc1ccc(S(=O)(=O)N2CCCCC2COCC(=O)NCC2CCC(C(c3ccc(Cl)cc3)N(C)C)CC2)cc1 (stereo not shown) [Example 321] | 94 | 77 |
| COc1ccc(S(=O)(=O)N(C)CCOCC(=O)NCCC2CCC(C(c3ccc(Cl)cc3)N(C)C)CC2)cc1OC (stereo not shown) [Example 339] | −9 | 31 |
| COc1ccc(S(=O)(=O)N2CCCCC2COCC(=O)NCC2CCC(C(c3cccc(F)c3)N(C)C)CC2)cc1OC (stereo not shown) [Example 329] | −17 | 9 |
| COc1ccc(S(=O)(=O)N2CCCCC2COCC(=O)NCCC2CCC(C(c3ccc(F)cc3)N(C)C)CC2)cc1 (stereo not shown) [Example 349] | 68 | 77 |
| CN(C)C(c1cccc(F)c1)C1CCC(CNC(=O)COC2CCN(S(=O)(=O)c3ccccc3)C2)CC1 (stereo not shown) [Example 355] | −7 | 28 |
| CN(C)C(c1cccc(F)c1)C1CCC(CNC(=O)COCCN(Cc2ccccc2)S(=O)(=O)c2ccccc2)CC1 (stereo not shown) [Example 296] | −1 | 24 |

| SMILES | B1R Ant. h [10 μM] % Inhibition [1] [%] | B1R Ant. r [10 μM] % Inhibition [2] [%] |
| --- | --- | --- |
| CN(C)C(c1ccc(F)cc1)C1CCC(CCNC(=O)COCC2CCCCN2S(=O)(=O)c2ccc(Cl)c(Cl)c2)CC1 (stereo not shown) [Example 337] | 51 | −23 |
| Cc1ccc(S(=O)(=O)N(C)CCOCC(=O)NCC2CCC(C(c3ccc(F)cc3)N(C)C)CC2)cc1 (stereo not shown) [Example 362] | 7 | 3 |
| CN(C)C(c1cccs1)C1CCC(NC(=O)COCCN2CCN(S(=O)(=O)c3ccccc3)CC2)CC1 (stereo not shown) [Example 341] | −1 | 18 |
| COc1cc(C)c(S(=O)(=O)N2CCC(CCOCC(=O)NCC3CCC(C(c4cccc(F)c4)N(C)C)CC3)CC2)c(C)c1C (stereo not shown) [Example 319] | 0 | 11 |
| COc1cc(C)c(S(=O)(=O)N2CCC(OCC(=O)NCCC3CCC(C(c4cccc(F)c4)N(C)C)CC3)C2)c(C)c1 (stereo not shown) [Example 307] | 105 | 94 |
| CN(C)C(c1ccc(Cl)cc1)C1CCC(CNC(=O)COCCN(C)S(=O)(=O)c2ccc(Cl)cc2)CC1 (stereo not shown) [Example 284] | 48 | 32 |
| CN(C)C(c1ccc(Cl)cc1)C1CCC(CNC(=O)COC2CCN(S(=O)(=O)c3ccccc3)C2)CC1 (stereo not shown) [Example 299] | −15 | −13 |
| COc1ccc(S(=O)(=O)N2CCCCC2COCC(=O)NCCC2CCC(C(c3cccc(F)c3)N(C)C)CC2)c(OC)c1 (stereo not shown) [Example 281] | 0 | 18 |
| COc1cc(C)c(S(=O)(=O)N2CCN(CCOCC(=O)NCCC3CCC(C(c4ccc(Cl)cc4)N(C)C)CC3)CC2)c(C)c1C (stereo not shown) [Example 320] | 73 | −8 |
| COc1cc(C)c(S(=O)(=O)N2CCCC(OCC(=O)NC3CCC(C(c4cccc(F)c4)N(C)C)CC3)C2)c(C)c1C (stereo not shown) [Example 279] | 23 | 7 |
| CN(C)C(c1ccccc1)C1CCC(CNC(=O)COC2CCN(S(=O)(=O)c3ccccc3)CC2)CC1 (stereo not shown) [Example 300] | −35 | 7 |
| COc1ccc(S(=O)(=O)N2CCCC2COCC(=O)NCC2CCC(C(c3cccc(F)c3)N(C)C)CC2)cc1 (stereo not shown) [Example 313] | 34 | 31 |
| CN(C)C(c1ccc(F)cc1)C1CCC(NC(=O)COCCN(Cc2ccccc2)S(=O)(=O)c2ccccc2)CC1 (stereo not shown) [Example 336] | 20 | 8 |
| COc1ccc(S(=O)(=O)N(C)CCOCC(=O)NCC2CCC(C(c3cccc(F)c3)N(C)C)CC2)cc1 (stereo not shown) [Example 340] | 39 | 23 |
| CN(C)C(c1ccc(F)cc1)C1CCC(CCNC(=O)COCCN(C)S(=O)(=O)c2c(Cl)cccc2Cl)CC1 (stereo not shown) [Example 285] | 97 | 75 |
| CN(C)C(c1ccc(F)cc1)C1CCC(NC(=O)COCC2CCCN2S(=O)(=O)c2ccc(Cl)c(Cl)c2)CC1 (stereo not shown) [Example 344] | 65 | 12 |
| CN(C)C(c1ccc(F)cc1)C1CCC(CNC(=O)COC2CCCCC2N(C)S(=O)(=O)c2ccc(Cl)c(Cl)c2)CC1 (stereo not shown) [Example 359] | 42 | −4 |
| Cc1ccc(S(=O)(=O)N2CCC(OCC(=O)NCC3CCC(C(c4ccc(Cl)cc4)N(C)C)CC3)C2)cc1 (stereo not shown) [Example 304] | 22 | 19 |
| CN(C)C(c1cccc(F)c1)C1CCC(NC(=O)COC2CCN(S(=O)(=O)c3ccccc3)CC2)CC1 (stereo not shown) [Example 335] | −8 | 2 |
